Where a name gives a salt, the structure may show the parent alone. Read-outs that look alike come from different tables or passages of the source.
Assays:
[1] = test system: carrageenin edema in SD-strain rats; experiment: Carrageenin edema at hind foot of rats (anti-inflammatory action); format: in vivo, rat; conditions: for inhibition in vivo at 200 mg/kg: Rattus norvegicus, po, 3 h, read-out: % Inhibition of carrageenin edema
Description: The anti-inflammatory action of the compounds of the present invention were evaluated by measuring the inhibition against carrageein edema as set forth below.
Carrageenin edema at hind foot of rats:
SD-strain rats of body weights of around 150 grams were used, each group consisting of five rats. A solution (0.1 ml) of 0.5% carrageenin dissolved in physiological saline water was hypodermically injected into right hind foot pat of the rats and, one hour prior to the injection of carrageenin, 200 mg/kg of test compound was given per os. Foot volumes of the rats before the carrageenin treatment and those of three hours after the treatment were measured and the differences were compared with those of the control group to determine the effect of the compounds.

[2] = test system: passive cutaneous anaphylaxis (DNP-As antigen) in Wister strain rats; experiment: passive cutaneous anaphylaxis (PCA) assay in rats; format: in vivo; conditions: 10 mg/kg oral, one hour before antigen; for inhibition in vivo at 10 mg/kg: Rattus norvegicus, po, 1 h, read-out: PCA Inhibition Ratio %
Description: (i) Antiserum abundant in homocytotropic antibody is prepared by the same method as Tada and Okumura did (cf. Journal of Immunology, vol. 106, page 1002, 1976). Thus, 1 mg (calculated as an amount of protein) of DNP-As (2,4-dinitrophenyl-coupled ascaris extract) prepared by methods of Strejan and Campbell (Journal of Immunology, vol. 98, p. 893, 1971) and of Eisen (Journal of Amer. Chem. Soc., vol. 85, p 4593, 1953) and 1×10^10pertussis vaccine are administered to each paw of Wister strain rats (180 to 200 grams body weights) by dividing the dose by four. Five days later, 0.5 mg of DNP-As is administered into muscle of back. Eight days later from the initial immunization, blood is taken from descending aorta under anesthetizing with ether, the resulting serum is stored at -80° and is melted before use.
(ii) Effect of tested compounds is investigated as follows:
Anti-serum obtained by the method (i) is diluted with physiological saline solution double by double successively and 0.05 ml of each diluted solution is administered into back of Wister strain rats (140 to 160 grams body weight) subcutaneously. After 72 hours, a solution of 2 mg (calculated as protein) of DNP-As and 2.5 mg of Evans Blue dissolved in 1 ml of physiological saline solution is administered intraveously at a dose of 5 ml/kg. After 30 minutes from antigen solution administration, the animals are killed and diameters of blue spots appeared at the place where antiserum is administered are measured. The PCA test is conducted by the same method as already described using a diluted solutions of antiserum which always show 10 mm or more of spot diameters and the effect of the test compounds is judged. Thus antiserum diluted solutions are administered to two places in back. Test compounds are administered orally at the dose of 10 mg/kg one hour before administration of antigen solution. From the skin of reacted parts of killed animals, leaked or emitted dyestuff is extracted and the amount of the dyestuff is measured. The inhibition ratio is calculated by the following expression:
Inhibition Ratio=(1-A'/A)×100
in which A' is an amount of dyestuff in the group treated with the test compounds and A is that in the control group.

[3] = test system: SRS-A (slow reacting substance of anaphylaxis); experiment: Anti-SRS-A action using isolated ileus of guinea pigs
Description: Anti-SRS-As action (An anti-action against slow reacting substance of anaphylaxis).
Hartley strain male guinea pigs (300 to 350 grams body weight) are killed and 1.0 to 1.5 cm of ileus is immeidiately excised from ileocecal parts and is suspended in 10 ml of Tyrode solution (95% O2 -5% CO2 saturation) containing 10^-7 g/ml of atropine and 10^-6 g/ml of pyrilamine. SRS-A (20 units) (the amount of SRS-A showing the same shrinkage as 5 ng of histamine is defined as 1 unit) prepared by using sensitized guinea pig lung is given to cause shrinkage there. Then antagonistic action of test compounds treated five minutes ago against the shrinkage is measured and recorded via isotonic transducer.
Inhibition Ratio of Test Compd (%)=(1-A'/A)×100
in which A' is a height of shrinkage of SRS-A+test compound and A is that of SRS-A.

male mice = experiment: Acute oral toxicity in mice (lethal ratio); format: in vivo; conditions: 400 mg/kg oral, two weeks, four mice per group
Description: Acute toxicity was determined two weeks after oral administration of 400 mg/kg to male mice. Four mice (denominator) are used in each group and the dead numbers are given as the numerator. The compounds of the present invention show little, if any, toxicity.
Lethal ratios for all other compounds are 0/4 at doses of […]. It is therefore apparent that they are all safe compounds.

[4] = 200 mg/kg per os one hour before carrageenin, 3 hours after
[5] = 10^-6 M; guinea pig ileus, SRS-A 20 units; 5 min, 1 µM

Row | SMILES | inhibition in vivo at 200 mg/kg [1, 4] [%] | inhibition in vivo at 10 mg/kg [2] [%] | SRS-A Inhibition Ratio % [3, 5] [%] | other results
1 | CC(=O)Oc1ccccc1C(=O)O [Acetylsalicylic Acid, reference compound] |  |  |  | inhibition in vivo at 200 mg/kg [1]: 31.6%
2 | O=C(c1ccccc1)c1c(O)c2cc(Cl)ccc2[nH]c1=O [Example 1, 3-Benzoyl-6-chloro-4-hydroxy-2-quinolone] | 42.1 |  |  | 
3 | COc1ccc(C(=O)c2c(O)c3ccccc3[nH]c2=O)cc1OC [Example 2, 3-(3,4-Dimethoxybenzoyl)-4-hydroxy-2-quinolone] |  | 25.5 | 24.2 | 
4 | COC(=O)c1cccc2[nH]c(=O)c(C(=O)c3ccccc3)c(O)c12 [Example 3, Methyl 3-benzoyl-4-hydroxy-2-quinolone-5-carboxylate] | 32.8 | 26.9 | 26.4 | 
5 | CC(C)c1ccc2[nH]c(=O)c(C(=O)c3ccccc3)c(O)c2c1 [Example 5, 3-Benzoyl-4-hydroxy-6-isopropyl-2-quinoline] | 32.1 |  |  | 
6 | CCCCCCc1ccc2[nH]c(=O)c(C(=O)c3ccccc3)c(O)c2c1 [Example 7, 3-Benzoyl-6-n-hexyl-4-hydroxy-2-quinolone sodium salt] |  |  |  | PCA Inhibition Ratio % ([2]; rat, sodium salt, 10 mg/kg): 15.2%; SRS-A Inhibition Ratio % ([3]; 10^-6 M, guinea pig ileus, SRS-A 20 units, 5 min, 1 µM, sodium salt): 91.2%
7 | O=C(c1ccccc1)c1c(O)c2ccc([N+](=O)[O-])cc2[nH]c1=O [Example 10, 3-benzoyl-4-hydroxy-7-nitro-2-quinolone] |  | 33.4 | 22.3 | Lethal Ratio (dead/treated) (male mice): 0/4
8 | COC(=O)c1cccc2c(O)c(C(=O)c3ccccc3)c(=O)[nH]c12 [Example 13] |  | 25.7 | 19.8 | Lethal Ratio (dead/treated) (male mice): 1/4
9 | O=C(c1ccccc1)c1c(O)c2cccc(C(=O)O)c2[nH]c1=O [Example 16, 3-benzoyl-4-hydroxy-2-quinolone-8-carboxylic acid] |  | 30.9 | 22.4 | Lethal Ratio (dead/treated) (male mice): 0/4
10 | Cc1ccc2[nH]c(=O)c(C(=O)c3ccccc3)c(O)c2c1 [Example 17, 3-benzoyl-4-hydroxy-6-methyl-2-quinolone] |  | 35.4 | 21.9 | 
11 | Cc1ccc2c(O)c(C(=O)c3ccccc3)c(=O)[nH]c2c1 [Example 18, 3-benzoyl-4-hydroxy-7-methyl-2-quinolone] |  | 26 | 21.3 | 
12 | Cc1cc2[nH]c(=O)c(C(=O)c3ccccc3)c(O)c2cc1C [Example 20, 3,-benzoyl-6,7-dimethyl-4-hydroxy-2-quinolone] |  | 17.4 | 23.5 | 
13 | CCCCc1ccc2[nH]c(=O)c(C(=O)c3ccccc3)c(O)c2c1 [Example 22, 3-benzoy-6-n-butyl-4-hydroxy-2-quinolone] |  | 17.4 | 39.5 | 
14 | COc1ccccc1C(=O)c1c(O)c2ccccc2[nH]c1=O [Example 24, 4-hydroxy-3-(2-methoxybenzoyl)-2-quinolone] |  | 24.7 | 20.2 | 
15 | COc1ccc(C(=O)c2c(O)c3ccccc3[nH]c2=O)c(OC)c1 [Example 28, 3-(2,4-dimethoxybenzoyl)-4-hydroxy-2-quinolone] |  | 21.2 | 42.9 | 
16 | COc1ccc(C(=O)c2c(O)c3cc(C)ccc3[nH]c2=O)cc1OC [Example 29, 3-(3,4-dimethoxybenzoyl)-4-hydroxy-6-methyl-2-quinolone] |  | 12.1 | 42.1 | 
17 | COc1ccc(C(=O)c2c(O)c3ccc([N+](=O)[O-])cc3[nH]c2=O)cc1OC [Example 30, 3-(3,4-dimethoxybenzoyl)-4-hydroxy-7-nitro-2-quinolone] | 21.3 | 18.7 | 26.7 | 
18 | COc1ccc(C(=O)c2c(O)c3cccc(C)c3[nH]c2=O)cc1OC [Example 31, 3-(3,4-dimethoxybenzoyl)-4-hydroxy-8-methyl-2-quinolone] | 77.5 | 20.4 | 20.5 | 
19 | COc1ccc(C(=O)c2c(O)c3ccccc3[nH]c2=O)c(OC)c1OC [Example 32, 4-hydroxy-3-(2,3,4-trimethoxybenzoyl)-2-quinolone] |  | 16.3 | 100 | Lethal Ratio (dead/treated) (male mice): 0/4; SRS-A Inhibition Ratio % (value in parentheses) ([3]; 10^-7 M; guinea pig ileus, SRS-A 20 units; 5 min, 0.1 µM): 83.3%
20 | CC(C)c1ccc2[nH]c(=O)c(C(=O)c3ccccc3Cl)c(O)c2c1 [Example 36, 3-(2-chlorobenzoyl)-4-hydroxy-6-isopropyl-2-quinolone] |  | 12.4 | 60.0 | 
21 | Cc1cc(C)c2[nH]c(=O)c(C(=O)c3ccccc3Cl)c(O)c2c1 [Example 37, 3-(2-chlorobenzoyl)-6,8-dimethyl-4-hydroxy-2-quinolone] |  | 20.8 | 28.3 | 
22 | O=C(c1ccc(Cl)cc1)c1c(O)c2ccccc2[nH]c1=O [Example 39, 3-(4-chlorobenzoyl)-4-hydroxy-2-quinolone] |  | 19.8 | 27.0 | 
23 | Cc1ccc(C(=O)c2c(O)c3ccccc3[nH]c2=O)c(C)c1 [Example 43, 3-(2,4-dimethylbenzoyl)-4-hydroxy-2-quinolone] | 15.7 |  |  | 
24 | O=C(c1cccc(C(F)(F)F)c1)c1c(O)c2ccccc2[nH]c1=O [Example 44, 4-hydroxy-3-(3-trifluoromethylbenzoyl)-2-quinolone] | 15.9 |  |  | 
25 | CCCCCc1ccc(C(=O)c2c(O)c3ccccc3[nH]c2=O)cc1 [Example 46, 4-hydroxy-3-(4-n-pentylbenzoyl)-2-quinolone] |  | 3.2 | 26.9 | 
26 | CC(C)c1ccc2[nH]c(=O)c(C(=O)c3ccc([N+](=O)[O-])cc3)c(O)c2c1 [Example 48, 4-hydroxy-6-isopropyl-3-(4-nitrobenzoyl)-2-quinolone] | 12.5 | 8.6 |  | 
27 | O=C(O)c1ccc(C(=O)c2c(O)c3ccccc3[nH]c2=O)cc1 [Example 51, 3-(4-carboxybenzoyl)-4-hydroxy-2-quinolone] |  | 7.4 | 50.0 | 
28 | COc1ccc(C(=O)c2c(O)c3ccc([N+](=O)[O-])cc3[nH]c2=O)c(OC)c1OC [Example 54, 4-hydroxy-7-nitro-3-(2,3,4-trimethoxybenzoyl)-2-quinolone] | 13.1 |  |  | 
29 | CCCCCCc1ccc2[nH]c(=O)c(C(=O)c3ccccc3)c(O)c2c1 [Example 55] |  | 13.6 |  | % Inhibition of carrageenin edema [1, 4]: 10.0%; SRS-A Inhibition Ratio % ([3]; 10^-6 M, guinea pig ileus, SRS-A 20 units, 5 min, 1 µM): 85.6%
30 | CCCCCCc1ccc2[nH]c(=O)c(C(=O)c3ccc(OC)cc3)c(O)c2c1 [Example 59] | 12.8 |  |  | 

— patent US4526894A, “Pharmaceutically active 4-hydroxy-3-benzoyl-2-quinolone derivatives” (Nippon Shinyaku Co. Ltd., priority 1982, dated 1985)
